Columns and labels:
[1] = Intraperitoneal glucose tolerance test and plasma insulin (in vivo); parameters: species or system mice; settings: for effect on blood glucose concentration compared to control: glucose tolerance test in vivo
Experimental: (A) n=8 mice for control and n=7 mice for Kom56, (D) n=8 mice each. (B,E) Blood glucose concentrations of mice during i.p. glucose tolerance tests with 1.5 mg/g BW glucose with or without i.p. compound administration. n=8 mice each. (C,F) AUC0-120min calculation of blood glucose concentrations of B,E. Statistical testing: (A,D) two-way ANOVA followed by Sidak's multiple comparison test. (B,C,E,F) unpaired two-sided Student's t-test. All values are shown with mean±SEM, except for glucose tolerance tests (B,E), in which all values are mean±SD.
Further, glucose tolerance tests (in vivo) were performed, if the corresponding in vitro assays were “positive”.
Glucose tolerance tests for the compounds were performed like in paragraph [0209].

[2] = Oral glucose tolerance test and plasma insulin (in vivo); settings: mice, FIG. 3
Experimental: (B) Blood glucose concentrations of mice during oral glucose tolerance test with 1.5 mg/g BW glucose with or without p.o. compound administration. n=7 mice for control and n=8 mice for Kom56. (C) AUC0-120min calculation of blood glucose concentrations of B. Statistical testing: (A) two-way ANOVA followed by Sidak's multiple comparison test. (B,C) unpaired two-sided Student's t-test. All values are shown with mean±SEM, except for glucose tolerance test (B), in which all values are mean±SD.

mouse pancreatic islets [3] = test: Insulin secretion assay on isolated pancreatic islets (in vitro); assay type: cell-based; settings: low (2 mM) and high glucose (20 mM), FIG. 1
Experimental: Statistical testing: two-way ANOVA followed by Sidak's multiple comparison test. All values are shown with mean±SEM.
Further, insulin secretion assays (in vitro) were performed.
Insulin secretion assays for the compounds were performed like in paragraph [0208].

μ-opioid (MOP) receptor = μ-opioid (MOP) receptor (Homo sapiens, UniProt P35372); test: MOP receptor inhibition, SafetyScreen44 Panel; assay type: binding; settings: test concentration 1.0 10^−5 M
μ-opioid (MOP) receptor, sequence (P35372 whole entry): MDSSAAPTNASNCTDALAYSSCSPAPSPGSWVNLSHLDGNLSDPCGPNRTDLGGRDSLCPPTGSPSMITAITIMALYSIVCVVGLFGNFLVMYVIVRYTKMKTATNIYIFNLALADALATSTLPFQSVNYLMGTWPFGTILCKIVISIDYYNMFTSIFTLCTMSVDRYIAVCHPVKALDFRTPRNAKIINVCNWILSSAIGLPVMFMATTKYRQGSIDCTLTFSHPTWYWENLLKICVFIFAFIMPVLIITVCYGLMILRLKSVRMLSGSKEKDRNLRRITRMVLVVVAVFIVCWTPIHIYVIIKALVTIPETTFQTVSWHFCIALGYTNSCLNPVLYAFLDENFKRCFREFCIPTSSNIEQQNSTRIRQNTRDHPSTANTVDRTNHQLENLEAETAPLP

[4] = Von Frey monofilament paw withdrawal test; assay type: in vivo; settings: mice, i.p. administration, paw withdrawal thresholds versus PBS, FIG. 5
Description: (A) Force that is needed to reach a 50% threshold, and (B) force that is needed to reach a 75% threshold in paw withdrawal. n=6 mice each. Statistical testing: (A,B) unpaired two-sided Student's t-test. All values are shown with mean±SEM.

mouse pancreatic islets [5] = test: Islet cell death induced by oxidative stress (H2O2), flow cytometry; assay type: cell-based; settings: 150 μM H2O2, 1 and 0.1 μM Kom56, 24 h, FIG. 6
Experimental: (A) Healthy control, (B) pancreatic islets incubated with 150 μM H2O2, (C) 150 μM H2O2 plus 1 μM Kom56, and (D) 150 μM H2O2 plus 0.1 μM Kom56. Analyzed by flow cytometry. Pancreatic islets were dissociated using trypsin and stained with Fixable Viability Stain 660 (FVS660). FVS660+=dead cells, FVS660-=living cells, values are shown in %.

mouse pancreatic islets [6] = test: Streptozotocin-induced islet cell death; assay type: cell-based; settings: 2 mM streptozotocin, 1 μM Kom56, 24 h, FIG. 7
Description: Blue (Hoechst), nuclei; red (ethidium homodimer1), dead cells; green (calcein), viable cells. (B) Area of dead cells in mouse islets treated as described in A. n=4 islet batches each with 11-14 islets per batch for each group. Statistical testing: (B) one-way ANOVA followed by Tukey's multiple comparison test. All values are shown with mean±SEM. (A) Scale bars, 50 μm.

[7] = biological target: T1, potassium voltage-gated channel subfamily H member 2 (hERG) (Homo sapiens, UniProt Q12809); test: hERG channel binding assay ([3H] Dofetilide); settings: SafetyScreen44 Panel, test concentration 1.0 10^−5 M
T1 construct: expressed in transfected cells; host or cells: HEK-293
T1 sequence (Q12809 whole entry): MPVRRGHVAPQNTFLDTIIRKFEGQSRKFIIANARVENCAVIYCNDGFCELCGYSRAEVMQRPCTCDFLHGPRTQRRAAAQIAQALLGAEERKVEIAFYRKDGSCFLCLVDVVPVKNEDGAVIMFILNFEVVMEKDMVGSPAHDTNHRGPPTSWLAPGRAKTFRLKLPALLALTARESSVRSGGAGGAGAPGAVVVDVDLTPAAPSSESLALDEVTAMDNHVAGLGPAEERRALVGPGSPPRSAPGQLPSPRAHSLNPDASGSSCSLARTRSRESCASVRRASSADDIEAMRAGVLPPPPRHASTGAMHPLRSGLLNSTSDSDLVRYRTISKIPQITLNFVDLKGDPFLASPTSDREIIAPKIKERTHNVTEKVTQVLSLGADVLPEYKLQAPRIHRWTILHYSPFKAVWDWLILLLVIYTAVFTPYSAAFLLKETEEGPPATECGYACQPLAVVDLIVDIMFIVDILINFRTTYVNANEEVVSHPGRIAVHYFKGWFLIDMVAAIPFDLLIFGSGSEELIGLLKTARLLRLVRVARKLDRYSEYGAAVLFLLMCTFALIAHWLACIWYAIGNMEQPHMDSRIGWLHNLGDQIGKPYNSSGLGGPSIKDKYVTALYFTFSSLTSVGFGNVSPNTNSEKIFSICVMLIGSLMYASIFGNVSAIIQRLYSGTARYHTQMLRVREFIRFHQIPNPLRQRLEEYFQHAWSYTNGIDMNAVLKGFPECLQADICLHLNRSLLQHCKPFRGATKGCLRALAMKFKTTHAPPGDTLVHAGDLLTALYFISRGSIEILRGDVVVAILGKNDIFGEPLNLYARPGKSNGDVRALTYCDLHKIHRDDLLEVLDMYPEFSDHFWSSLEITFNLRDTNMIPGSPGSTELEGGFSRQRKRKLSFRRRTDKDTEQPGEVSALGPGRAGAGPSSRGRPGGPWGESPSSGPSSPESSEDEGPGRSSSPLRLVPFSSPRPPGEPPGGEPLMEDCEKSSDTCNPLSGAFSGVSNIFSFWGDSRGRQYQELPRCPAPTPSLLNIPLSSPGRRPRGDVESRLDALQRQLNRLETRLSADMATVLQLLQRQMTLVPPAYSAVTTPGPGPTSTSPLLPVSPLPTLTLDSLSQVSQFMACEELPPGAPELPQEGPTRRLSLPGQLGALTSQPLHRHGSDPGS
Experimental: (§1) For the hERG channel binding assay, compound binding was calculated as % inhibition of the binding of a radioactively labeled ligand that is specific for the target (i.e., [3H] Dofetilide). HEK-293 cells (human embryonic kidney cells) were used for these binding assays. The compounds were tested at a concentration of 10 μM and 2 repetitions were conducted for each compound.

[8] = biological target: T2, hERG (potassium voltage-gated channel subfamily H member 2) (Homo sapiens, UniProt Q12809); test: hERG channel binding assay ([3H] Dofetilide); settings: human, HEK-293 cells (hERG channel binding assay), probe [3H] Dofetilide; 10 μM, [3H] Dofetilide, HEK-293 cells, 2 repetitions; read-out: hERG inhibition (% inhibition of the binding of a ligand specific for the target)
T2 construct: expressed in transfected cells; host or cells: HEK-293
T2 sequence (Q12809 whole entry): as above
Experimental: as §1

[9] = system: SafetyScreen44™ Panel with all 44 targets; test: SafetyScreen44 Panel toxicological test; settings: test concentration 1.0 10^−5 M
Experimental: Inhibition of potassium voltage-gated channel subfamily H member 2 (hERG) of the compounds was measured as in the SafetyScreen44™ Panel (see Example 3). The hERG channel binding assay is part of the SafetyScreen44™ Panel, but can also be conducted solely. The entire SafetyScreen44™ Panel with all 44 targets was just conducted for the three compounds as shown in [0206], for the other molecules just the hERG inhibition was measured.

Compound | effect on blood glucose concentration compared to control [1] | hERG inhibition [%] [7] [%] | inhibition at 10 µM (μ-opioid (MOP) receptor) [%] | toxicology (hits with over 50% inhibition) [9] | also measured
4-[(1S,9S)-4-methoxy-17-methyl-17-azatetracyclo[7.5.3.0^1,^10,0^2,^7]heptadeca-2(7),3,5-trien-5-yl]-1-methylpiperazin-2-one [Compound 36] | slightly positive effect | – | – | – | –
COc1cc2c(cc1NC(=O)c1cncn1C)C[C@H]1C3CCCC[C@@]23CCN1C (stereo partly drawn) [Compound 7, N-[(1S,9S)-4-methoxy-17-methyl-17-azatetracyclo[7.5.3.0^1,^10,0^2,^7]heptadeca-2(7),3,5-trien-5-yl]-1-methyl-1H-imidazole-5-carboxamide] | significant effect | 7.9 | – | – | plasma insulin concentrations ([1]; mice, 30 min after i.p. administration together with glucose, FIG. 2): increases plasma insulin concentrations; glucose tolerance ([1]; mice, i.p. glucose tolerance test, 1.5 mg/g BW glucose, i.p. compound, FIG. 2): improves glucose tolerance; plasma insulin concentrations ([2]; 30 min after p.o. administration together with glucose): increases plasma insulin concentrations; glucose tolerance ([2]; oral glucose tolerance test, 1.5 mg/g BW glucose, p.o. compound): improves glucose tolerance; glucose-stimulated insulin secretion from mouse pancreatic islets (mouse pancreatic islets [3]): increases the glucose-stimulated insulin secretion; MOP inhibition [%] (μ-opioid (MOP) receptor): 33.7%; touch sensitivity during mechanical stimulation with Von Frey monofilaments [4]: reduces touch sensitivity; protection from cell death induced by oxidative stress (mouse pancreatic islets [5]): protects mouse pancreatic islets from cell death induced by oxidative stress; protection from streptozotocin-induced cell death (mouse pancreatic islets [6]): protects mouse pancreatic islets from streptozotocin-induced cell death
COc1cc2c(cc1N1CC(N(C)C)C1)C[C@H]1C3CCCC[C@@]23CCN1C (stereo partly drawn) [Compound 35, 1-[(1S,9S)-4-methoxy-17-methyl-17-azatetracyclo[7.5.3.0^1,^10,0^2,^7]heptadeca-2(7),3,5-trien-5-yl]-N,N-dimethylazetidin-3-amine] | slightly positive effect | – | – | – | inhibition at 10 µM [8]: < 15%
COc1ccc2c(c1)[C@]13CCCC[C@@H]1[C@H](C2)N(C)CC3 [DXM, dextromethorphan] | – | 20.9 | 85 | 6 | –
Br.Br.COc1cc2c(cc1-n1ccnc1)C[C@H]1[C@H]3CCCC[C@@]23CCN1C [DXM-2, (9S, 13S, 14S)-2-(1H-Imidazol-1-yl)-3-methoxy-17-methyl morphinan dihydrobromide] | – | 51.8 | 83.6 | 7 | –

From US20250223262A1, “[…] OF […] REDUCED HERG ACTIVITY AND MOP BINDING” (Heinrich-Heine-Universität Düsseldorf, priority 2022, published 2025)
